# Measured values: patent publication US7834179B2, “Spiroindolinone derivatives” (Hoffmann-La Roche Inc., priority 2007, dated 2010)
# Target: interaction between p53 and MDM2 proteins (Homo sapiens, UniProt Q00987)
# Assay: HTRF assay of inhibition of p53-MDM2 interaction (GST-MDM2 / biotinylated p53 peptide)
# Format: binding
# Settings: recombinant GST-tagged MDM2 and biotinylated p53 peptide, 37° C. for 1 h
# Experimental: The ability of the compounds to inhibit the interaction between p53 and MDM2 proteins was measured by an HTRF (homogeneous time-resolved fluorescence) assay in which recombinant GST-tagged MDM2 binds to a peptide that resembles the MDM2-interacting region of p53 (Lane et al.). Binding of GST-MDM2 protein and p53-peptide (biotinylated on its N-terminal end) is registered by the FRET (fluorescence resonance energy transfer) between Europium (Eu)-labeled anti-GST antibody and streptavidin-conjugated Allophycocyanin (APC).
# Test is performed in black flat-bottom 384-well plates (Costar) in a total volume of 40 uL containing: 90 nM biotinylate peptide, 160 ng/ml GST-MDM2, 20 nM streptavidin-APC (PerkinElmerWallac), […] Eu-labeled anti-GST-antibody (PerkinElmerWallac), 0.2% bovine serum albumin (BSA), 1 mM dithiothreitol (DTT) and 20 mM Tris-borate seine (TBS) buffer as follows: Add 10 uL of GST-MDM2 (640 ng/ml working solution) in reaction buffer to each well. Add 10 uL diluted compounds (1:5 dilution in reaction buffer) to each well, mix by shaking. Add 20 uL biotinylated p53 peptide (180 nM working solution) in reaction buffer to
# each well and mix on shaker. Incubate at 37° C. for 1 h. Add 20 uL streptavidin-APC and Eu-anti-GST antibody mixture (6 nM Eu-anti-GST and 60 nM streptavidin-APC working solutions), in TBS buffer with 0.2% BSA, shake at room temperature for 30 minutes and read using a TRF-capable plate reader at 665 and 615 nm (Victor 5, Perkin ElmerWallac). If not specified, the reagents were purchased from Sigma, Chemical Co.
# Sequence of interaction between p53 and MDM2 proteins (Q00987 whole entry): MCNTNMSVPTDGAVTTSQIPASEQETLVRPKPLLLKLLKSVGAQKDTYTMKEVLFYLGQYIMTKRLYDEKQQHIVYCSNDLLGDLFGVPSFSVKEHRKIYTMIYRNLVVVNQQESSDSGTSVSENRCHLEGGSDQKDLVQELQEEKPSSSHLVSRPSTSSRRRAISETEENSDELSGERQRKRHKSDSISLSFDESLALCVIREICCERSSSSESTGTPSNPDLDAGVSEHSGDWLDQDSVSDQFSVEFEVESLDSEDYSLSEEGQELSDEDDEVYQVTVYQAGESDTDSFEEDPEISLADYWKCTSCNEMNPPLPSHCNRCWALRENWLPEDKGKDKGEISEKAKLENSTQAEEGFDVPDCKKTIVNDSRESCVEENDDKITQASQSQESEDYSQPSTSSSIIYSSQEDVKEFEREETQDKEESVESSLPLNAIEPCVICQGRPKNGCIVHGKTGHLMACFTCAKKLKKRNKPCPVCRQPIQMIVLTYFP
row,SMILES,IC50 [nM]
1,"C=C(CC)[C@H]1N2CC(=O)N(CCOC(C)=O)N=C2C[C@@H](c2cccc(Cl)c2)[C@]12C(=O)Nc1cc(Cl)ccc12 (racemic) [Example 7b, (6′R, 3R, 8′S)-2′-(2-acetoxyethyl)-6-chloro-8′-(3-chlorophenyl)-6′-(1-methylene-propyl)-6′,7′,8′,9′-tetrahydro spiro[3H-indole-3,7′-(2H-pyrido[2,1-c][1,2,4]triazine)]-2,3′(1H)-dione]",890
2,"C=CCOc1ccc(I)cc1[C@H]1N2CC(=O)N(C)N=C2C[C@@H](c2cccc(Cl)c2)[C@]12C(=O)Nc1cc(Cl)ccc12 (racemic) [Example 18g, (6′R, 3R, 8′S)-6′-(2-allyloxy-5-iodo-phenyl)-6-chloro-8′-(3-chlorophenyl)-2′-methyl-6′,7′,8′,9′-tetrahydro spiro[3H-indole-3,7′-(2H-pyrido[2,1-c][1,2,4]triazine)]-2,3′(1H)-dione]",272

# Other lines, results leading:
row,IC50 [nM],SMILES
1,191,"Cc1ccc(F)cc1[C@H]1N2CC(=O)N(C)N=C2C[C@@H](c2cccc(Cl)c2)[C@]12C(=O)Nc1cc(Cl)ccc12 (racemic) [Example 1i, (6′R, 3R, 8′S)-6-chloro-8′-(3-chlorophenyl)-6′-(5-fluoro-2-methylphenyl)-2′-methyl-6′,7′,8′,9′-tetrahydro spiro[3H-indole-3,7′-(2H-pyrido[2,1-c][1,2,4]triazine)]-2,3′(1H)-dione]"
2,293,"C=C(CC)[C@H]1N2CC(=O)N(CC(=O)NCCO)N=C2C[C@@H](c2cccc(Cl)c2)[C@]12C(=O)Nc1cc(Cl)ccc12 [Example 11c, (6′R, 3R, 8′S)-6-chloro-8′-(3-chlorophenyl)-2′-[(2-hydroxyethylamino)carbonyl-methyl]-6′-(1-methylene-propyl)-6′,7′,8′,9-tetrahydro spiro[3H-indole-3,7′-(2H-pyrido[2,1-c][1,2,4]triazine)]-2,3′(1H)-dione]"
3,100,"C=C(CC)[C@H]1N2CC(=O)N(CCCN(C)C)N=C2C[C@@H](c2cccc(Cl)c2)[C@]12C(=O)Nc1cc(Cl)ccc12 (racemic) [Example 5b, (6′R, 3R, 8′S)-6-chloro-8′-(3-chlorophenyl)-2′-(3-dimethylaminopropyl)-6′-(1-methylene-propyl)-6′,7′,8′,9′-tetrahydro spiro[3H-indole-3,7′-(2H-pyrido[2,1-c][1,2,4]triazine)]-2,3′(1H)-dione]"
